Test results taken from patent US20060247260A1, “Bis (hetero) aryl carboxamide derivatives for use as PG12 antagonists” (BAYER HEALTHCARE AG, priority 2003, published 2006).

Tested on: not given
Assay: not given
Conditions: not given
`O=C(NC(Cc1ccccc1)C(=O)O)c1cc(-c2ccc(OCc3ccccc3)cc2)[nH]n1` (centres unmarked) [Example 1-1, 2-{[5-(4-Benzyloxyphenyl)-1H-pyrazole-3-carbonyl]amino}-3-phenylpropionic acid] gave a melting point of 196 to 200 °C. `O=C(NC(Cc1ccccc1)C(=O)O)c1ccc(-c2ccc(OCc3ccccc3)cc2)s1` (centres unmarked) [Example 2-1, 2-{[5-(4-Benzyloxyphenyl)thiophene-2-carbonyl]amino}-3-phenyl-propionic acid] showed a melting point of 215 to 216 °C. `O=C(NC(Cc1ccccc1)C(=O)[O-])c1ccc(-c2ccc(OCc3ccccc3)nc2)cc1.[Na+]` (centres unmarked) [Example 6-1, Sodium 2-[4-(6-benzyloxypyridin-3-yl)benzoylamino]-3-phenylpropionate] showed a melting point of 240 to 242 °C.

Target: T1, PGI2 receptor (Homo sapiens, UniProt P43119)
T1 construct: host or cells: HEL 92.1.7 human erythroleukemia cells (whole cells)
T1 sequence (P43119 whole entry): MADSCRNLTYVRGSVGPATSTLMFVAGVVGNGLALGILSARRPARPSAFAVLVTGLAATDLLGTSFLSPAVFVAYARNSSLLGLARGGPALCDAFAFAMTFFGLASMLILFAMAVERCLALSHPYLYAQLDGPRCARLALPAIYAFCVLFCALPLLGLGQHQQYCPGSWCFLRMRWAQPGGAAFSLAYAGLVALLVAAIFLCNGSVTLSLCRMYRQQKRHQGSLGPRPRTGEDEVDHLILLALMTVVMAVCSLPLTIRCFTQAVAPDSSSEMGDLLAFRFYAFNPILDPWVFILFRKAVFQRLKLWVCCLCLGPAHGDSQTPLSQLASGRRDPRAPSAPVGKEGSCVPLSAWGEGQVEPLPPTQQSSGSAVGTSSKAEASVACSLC
Assay: PGI2 receptor binding/cAMP in HEL cells (in vitro activity grade)
Conditions: compounds of purity about 40 to 90%
Procedure: [Measurement of the [^3H]-Iloprost Binding to HEL Cells] (Assay 1) A human erythloleukemia cell line, HEL 92.1.7, was purchased from American Type Culture Correction and maintained in RPMI-1640 medium (Gibco BRL) supplemented with 10% fetal calf serum (FCS), 2 mM glutamine, 4.5 g/L glucose, 10 mM Hepes, 1 mM sodium pyruvate, 100 U/ml penicillin, and 100 μg/ml streptomycin in a humidified 5% CO2 atmosphere at 37° C. Cells were collected with centrifugation and washed with binding assay buffer (BAB: 50 mM Tris-HCl, 5 mM MgCl2 (pH 7.5)). Cells were suspended at the density of 6.25×10^6 cells/ml in BAB, and one million cells in 160 μl aliquot of cell suspension were put in a well of 96 well plate (Falcon). Then, 20 μl of compound solution, 100 μM of iloprost (for non-specific binding), or buffer alone (total binding), diluted with 1% DMSO in BAB was added. Finally, another 20 μl containing [^3H]-iloprost (0.02 μCi, 0.5-1 pmol) in BAB was added and incubated at room temperature for 30 min with a gentle shaking. Cell suspension was then transferred to a well of MultiScreen plate with GF/C glass filters (Millipore) to harvest cells. Cells were washed twice with 200 μl of ice-cold BAB and the plate was kept at 55° C. for 30 min to dry filters. The filter in the well was punched out to a counting tube and 2 ml of Ultima Gold XR Packard) was added. [^3H]-radio activity in the filter was measured by a liquid scintillation counter (Beckman, USA). [Iloprost-Induced cAMP Production Assay in HEL Cells] (Assay 2) HEL cells were collected with centrifugation and washed with cAMP assay buffer (CAB: Hank's balanced salt solution, 17 mM Hepes, 0.1% bovine serum albumin, 1 mM IBMX, 0.4% DMSO, and 1 mM L-ascorbic acid sodium salt (pH 7.4)). Cells were suspended at the density of 2.5×10^5 cells/ml in CAB, and twenty thousand cells in 80 μl aliquot of cell suspension were put in a well of 96 well plate (Falcon). Then, 10 μl of compound solution diluted with 1% DMSO in CAB or buffer alone was added. The plate was incubated at 37° C. for 30 min. Then, another 10 μl containing 100 nM iloprost in CAB or buffer alone was added and further incubated at 37° C. for 30 min. cAMP content in the well was measured by, a cAMP ELISA kit (Applied Biosystems, USA). The data corresponds to the compounds as yielded by solid phase synthesis and thus to levels of purity of about 40 to 90%. For practical reasons, the compounds are grouped in three classes of activity as follows: In vitro activity grade=A≦0.1 μM<B≦1 μM<C
For `O=C(NC(Cc1ccccc1)C(=O)O)c1cc(-c2ccc(OCc3ccccc3)cc2)[nH]n1` (centres unmarked) [Example 1-1, 2-{[5-(4-Benzyloxyphenyl)-1H-pyrazole-3-carbonyl]amino}-3-phenylpropionic acid], the “In vitro activity grade” value was “A (A≦0.1 μM)”. In the case of `O=C(NC(Cc1ccccc1)C(=O)O)c1cc(-c2ccc(OCc3ccccc3)cc2)on1` (centres unmarked) [Example 1-2, 2-{[5-(4-Benzyloxyphenyl)isoxazole-3-carbonyl]amino}-3-phenyl-propionic acid], the “In vitro activity grade” value is reported as “A (A≦0.1 μM)”. With `O=C(NC(Cc1ccccc1)C(=O)O)c1ccc(-c2ccc(OCc3ccccc3)cc2)s1` (centres unmarked) [Example 2-1, 2-{[5-(4-Benzyloxyphenyl)thiophene-2-carbonyl]amino}-3-phenyl-propionic acid] the “In vitro activity grade” value was “A (A≦0.1 μM)”. For `O=C(NC(Cc1ccccc1)C(=O)O)c1ccc(-c2ccc(OCc3ccccc3)cc2)cc1` (centres unmarked) [Example 3-1, 2-[(4′-Benzyloxy-biphenyl-4-carbonyl)-amino]-3-phenyl-propionic acid], the “In vitro activity grade” value was “A (A≦0.1 μM)”. In the case of `O=C(NC(Cc1ccccc1)C(=O)O)c1ccc(-c2ccc(OCc3ccccc3)cc2)nc1` (centres unmarked) [Example 4-1, 2-{[6-(4-benzyloxy-phenyl)-pyridine-3-carbonyl]-amino}-3-phenyl-propionic acid], the “In vitro activity grade” value is reported as “A (A≦0.1 μM)”. In the case of `O=C(NC(Cc1ccccc1)C(=O)O)c1ccc(-c2cnc(OCc3ccccc3)nc2)cc1` (centres unmarked) [Example 5-1, 2-[4-(2-Benzyloxypyrimidin-5-yl)benzoylamino]-3-phenylpropionic acid], the “In vitro activity grade” value is reported as “A (A≦0.1 μM)”. In the case of `O=C(NC(Cc1ccccc1)C(=O)[O-])c1ccc(-c2ccc(OCc3ccccc3)nc2)cc1.[Na+]` (centres unmarked) [Example 6-1, Sodium 2-[4-(6-benzyloxypyridin-3-yl)benzoylamino]-3-phenylpropionate], the “In vitro activity grade” value is reported as “A (A≦0.1 μM)”. For `Cc1cccc(COc2ccc(-c3ccc(C(=O)NC(Cc4ccccc4)C(=O)O)cc3)cc2)c1` (centres unmarked) [Example 8-1, 2-{[4′-(3-Methylbenzyloxy)biphenyl-4-carbonyl]amino}-3-phenylpropionic acid], the “In vitro activity grade” value was “A (A≦0.1 μM)”. In the case of `O=C(NC(Cc1ccccc1)C(=O)O)c1ccc(-c2ccc(OCc3ccc([N+](=O)[O-])cc3)cc2)cc1` (centres unmarked) [Example 8-2], the “In vitro activity grade” value is reported as “B (0.1 μM<B≦1 μM)”. In the case of `O=C(NC(Cc1ccccc1)C(=O)O)c1ccc(-c2ccc(OCc3ccccc3F)cc2)cc1` (centres unmarked) [Example 8-3], the “In vitro activity grade” value is reported as “A (A≦0.1 μM)”. For `O=C(NC(Cc1ccccc1)C(=O)O)c1ccc(-c2ccc(OCc3cccc(F)c3)cc2)cc1` (centres unmarked) [Example 8-4], the “In vitro activity grade” value was “A (A≦0.1 μM)”. For `O=C(NC(Cc1ccccc1)C(=O)O)c1ccc(-c2ccc(OCc3ccc(F)cc3)cc2)cc1` (centres unmarked) [Example 8-5], the “In vitro activity grade” value was “A (A≦0.1 μM)”. In the case of `O=C(NC(Cc1ccccc1)C(=O)O)c1ccc(-c2ccc(OCc3ccc(F)c(F)c3)cc2)cc1` (centres unmarked) [Example 8-6], the “In vitro activity grade” value is reported as “A (A≦0.1 μM)”. For `O=C(NC(Cc1ccccc1)C(=O)O)c1ccc(-c2ccc(OCc3c(Cl)cccc3Cl)cc2)cc1` (centres unmarked) [Example 8-7], the “In vitro activity grade” value was “A (A≦0.1 μM)”. With `O=C(NC(Cc1ccccc1)C(=O)O)c1ccc(-c2ccc(OCc3cc(Cl)cc(Cl)c3)cc2)cc1` (centres unmarked) [Example 8-8] the “In vitro activity grade” value was “C (1 μM<C)”. With `O=C(NC(Cc1ccccc1)C(=O)O)c1ccc(-c2ccc(OCc3ccc(Cl)cc3Cl)cc2)cc1` (centres unmarked) [Example 8-9] the “In vitro activity grade” value was “C (1 μM<C)”. In the case of `O=C(NC(Cc1ccccc1)C(=O)O)c1ccc(-c2ccc(OCc3ccc(Cl)c(Cl)c3)cc2)cc1` (centres unmarked) [Example 8-10], the “In vitro activity grade” value is reported as “B (0.1 μM<B≦1 μM)”. With `O=C(NC(Cc1ccccc1)C(=O)O)c1ccc(-c2ccc(OCc3cccc(Cl)c3Cl)cc2)cc1` (centres unmarked) [Example 8-11] the “In vitro activity grade” value was “A (A≦0.1 μM)”. In the case of `O=C(NC(Cc1ccccc1)C(=O)O)c1ccc(-c2ccc(OCc3c(F)cccc3F)cc2)cc1` (centres unmarked) [Example 8-12], the “In vitro activity grade” value is reported as “B (0.1 μM<B≦1 μM)”. In the case of `COc1ccccc1COc1ccc(-c2ccc(C(=O)NC(Cc3ccccc3)C(=O)O)cc2)cc1` (centres unmarked) [Example 8-13], the “In vitro activity grade” value is reported as “B (0.1 μM<B≦1 μM)”. For `COc1cccc(COc2ccc(-c3ccc(C(=O)NC(Cc4ccccc4)C(=O)O)cc3)cc2)c1` (centres unmarked) [Example 8-14], the “In vitro activity grade” value was “A (A≦0.1 μM)”. In the case of `COc1ccc(COc2ccc(-c3ccc(C(=O)NC(Cc4ccccc4)C(=O)O)cc3)cc2)cc1` (centres unmarked) [Example 8-15], the “In vitro activity grade” value is reported as “B (0.1 μM<B≦1 μM)”. In the case of `COc1cc(COc2ccc(-c3ccc(C(=O)NC(Cc4ccccc4)C(=O)O)cc3)cc2)cc(OC)c1OC` (centres unmarked) [Example 8-16], the “In vitro activity grade” value is reported as “C (1 μM<C)”. With `O=C(NC(Cc1ccccc1)C(=O)O)c1ccc(-c2ccc(OCc3ccccc3Cl)cc2)cc1` (centres unmarked) [Example 8-17] the “In vitro activity grade” value was “A (A≦0.1 μM)”. In the case of `O=C(NC(Cc1ccccc1)C(=O)O)c1ccc(-c2ccc(OCc3ccc(F)cc3F)cc2)cc1` (centres unmarked) [Example 8-18], the “In vitro activity grade” value is reported as “A (A≦0.1 μM)”. With `Cc1ccc(COc2ccc(-c3ccc(C(=O)NC(Cc4ccccc4)C(=O)O)cc3)cc2)cc1` (centres unmarked) [Example 8-19] the “In vitro activity grade” value was “B (0.1 μM<B≦1 μM)”. For `O=C(NC(Cc1ccccc1)C(=O)O)c1ccc(-c2ccc(OCc3cccc(C(F)(F)F)c3)cc2)cc1` (centres unmarked) [Example 8-20], the “In vitro activity grade” value was “B (0.1 μM<B≦1 μM)”. For `O=C(NC(Cc1ccccc1)C(=O)O)c1ccc(-c2ccc(OCc3ccc(C(F)(F)F)cc3)cc2)cc1` (centres unmarked) [Example 8-21], the “In vitro activity grade” value was “C (1 μM<C)”. For `O=C(NC(Cc1ccccc1)C(=O)O)c1ccc(-c2ccc(OCc3cccc(Cl)c3)cc2)cc1` (centres unmarked) [Example 8-22], the “In vitro activity grade” value was “A (A≦0.1 μM)”. In the case of `COc1cc(COc2ccc(-c3ccc(C(=O)NC(Cc4ccccc4)C(=O)O)cc3)cc2)cc(OC)c1` (centres unmarked) [Example 8-23], the “In vitro activity grade” value is reported as “A (A≦0.1 μM)”. In the case of `Cc1ccccc1COc1ccc(-c2ccc(C(=O)NC(Cc3ccccc3)C(=O)O)cc2)cc1` (centres unmarked) [Example 8-24], the “In vitro activity grade” value is reported as “A (A≦0.1 μM)”. For `Cc1cc(C)cc(COc2ccc(-c3ccc(C(=O)NC(Cc4ccccc4)C(=O)O)cc3)cc2)c1` (centres unmarked) [Example 8-25], the “In vitro activity grade” value was “B (0.1 μM<B≦1 μM)”. For `Cc1ccc(C)c(COc2ccc(-c3ccc(C(=O)NC(Cc4ccccc4)C(=O)O)cc3)cc2)c1` (centres unmarked) [Example 8-26], the “In vitro activity grade” value was “B (0.1 μM<B≦1 μM)”. In the case of `Cc1ccc(COc2ccc(-c3ccc(C(=O)NC(Cc4ccccc4)C(=O)O)cc3)cc2)c(C)c1` (centres unmarked) [Example 8-27], the “In vitro activity grade” value is reported as “B (0.1 μM<B≦1 μM)”. For `O=C(NC(Cc1ccccc1)C(=O)O)c1ccc(-c2ccc(OCc3cccc([N+](=O)[O-])c3)cc2)cc1` (centres unmarked) [Example 8-28], the “In vitro activity grade” value was “A (A≦0.1 μM)”. With `O=C(NC(Cc1ccccc1)C(=O)O)c1ccc(-c2ccc(OCc3ccccc3OC(F)(F)F)cc2)cc1` (centres unmarked) [Example 8-29] the “In vitro activity grade” value was “C (1 μM<C)”. In the case of `O=C(NC(Cc1ccccc1)C(=O)O)c1ccc(-c2ccc(OCc3cccc(OC(F)(F)F)c3)cc2)cc1` (centres unmarked) [Example 8-30], the “In vitro activity grade” value is reported as “C (1 μM<C)”. With `O=C(NC(Cc1ccccc1)C(=O)O)c1ccc(-c2ccc(OCc3ccc(OC(F)(F)F)cc3)cc2)cc1` (centres unmarked) [Example 8-31] the “In vitro activity grade” value was “C (1 μM<C)”. With `O=C(NC(Cc1ccccc1)C(=O)O)c1ccc(-c2ccc(OCc3ccc(Cl)cc3)cc2)cc1` (centres unmarked) [Example 8-32] the “In vitro activity grade” value was “B (0.1 μM<B≦1 μM)”. In the case of `O=C(NC(Cc1ccccc1)C(=O)O)c1ccc(-c2ccc(OCC3CCCCC3)cc2)cc1` (centres unmarked) [Example 8-33], the “In vitro activity grade” value is reported as “B (0.1 μM<B≦1 μM)”. In the case of `O=C(NC(Cc1ccccc1)C(=O)O)c1ccc(-c2ccc(OCCCn3cccc3)cc2)cc1` (centres unmarked) [Example 8-34], the “In vitro activity grade” value is reported as “B (0.1 μM<B≦1 μM)”. With `O=C(NC(Cc1ccccc1)C(=O)O)c1ccc(-c2ccc(OCCc3ccccc3)cc2)cc1` (centres unmarked) [Example 8-35] the “In vitro activity grade” value was “A (A≦0.1 μM)”. In the case of `CC(Oc1ccc(-c2ccc(C(=O)NC(Cc3ccccc3)C(=O)O)cc2)cc1)c1ccccc1` (centres unmarked) [Example 8-36], the “In vitro activity grade” value is reported as “B (0.1 μM<B≦1 μM)”. In the case of `O=C(NC(Cc1ccccc1)C(=O)O)c1ccc(-c2ccc(OCCCc3ccccc3)cc2)cc1` (centres unmarked) [Example 8-37], the “In vitro activity grade” value is reported as “B (0.1 μM<B≦1 μM)”. In the case of `CCCCOc1ccc(-c2ccc(C(=O)NC(Cc3ccccc3)C(=O)O)cc2)cc1` (centres unmarked) [Example 8-38], the “In vitro activity grade” value is reported as “B (0.1 μM<B≦1 μM)”. With `Nc1cccc(COc2ccc(-c3ccc(C(=O)NC(Cc4ccccc4)C(=O)O)cc3)cc2)c1` (centres unmarked) [Example 8-39] the “In vitro activity grade” value was “A (A≦0.1 μM)”. With `O=C(NC(Cc1ccccc1)C(=O)O)c1ccc(-c2ccc(OCCN3CCCCC3)cc2)cc1` (centres unmarked) [Example 8-40] the “In vitro activity grade” value was “C (1 μM<C)”.
